This is an account of results in patent US8680100B2, “Sulfonylhydrazide compounds for treating proliferative disorders” (Synta Pharmaceuticals Corp., priority 2008, dated 2014).

In the assay the test system is HSP70. The assay can be described thus: Hsp70 Activity Essay (HSP70 ELISA on lysates of MDA435 cells). Format: cell-based. The conditions noted are these: concentration that increases HSP70 to 50% of maximum increase by N′1,N′3-dimethyl-N′1,N′3-di(phenylcarbonothioyl)malonohydrazide. Here is the method: Each well was plated with MDA435 cells using DMEM 10% FBS Phenol-red free medium 2.5 k/well and incubated in a 37° C./5% CO2 incubator for a minimum of 6 hours to obtain good cell adherence.
Dilutions of each test compound were prepared in DMSO and DMEM 10% FBS Phenol-red free medium. The final concentration in each well was 1250 nM, 125 nM, 12.5 nM or 1.25 nM of test compound and 0.25% DMSO. 0.25% DMSO was used as a negative control. Lysis buffer (any lysis buffer suitable for use in the Assay Designs kit, e.g., such as that described in the kit instructions) was then added (amount used is one quarter of the volume already present in each plate) and the mixtures were then shaken for 10 minutes.
150 μL of “Can Get Signal” Immunoreaction Enhancer Solution (Solution 1 for primary antibody, TOYOBO, Catalogue No. NKB-101) were added to each of a series of ELISA plates. The ELISA plates were obtained from the HSP70 ELISA Kit (catalogue number EKS-700B) purchased from Assay Designs (Ann Arbor, Mich.). After the cells were lysed, 50 μL of lysate were taken from each well and added to an ELISA plate, resulting in a 4 fold dilution of the lysate (50 μL of lysate and 150 μL of Can Get Signal solution). The plates were covered with adhesive tape and incubated overnight at 4° C.;
In the morning, the liquid was aspirated from all wells and 400 μL of Washing Buffer made from 20× concentrate provided in the ELISA Kit and distilled water were added and then removed by aspiration. The addition of Washing Buffer and aspiration was repeated four times. After the fourth wash, the plate were inverted to a paper towel and carefully patted dry. 100 μL of HSP70 antibody provided in ELISA Kit were added to each well. Each well was covered with adhesive tape and incubated for one hour at room temperature. Washing Buffer was then added followed by removal with aspiration. The addition of Washing Buffer and aspiration was repeated four times, after which the plates were inverted and patted dry. 100 μL of HSP70 conjugate (provided in the ELISA Kit) were added to the wells. Each well was then covered with adhesive tape and incubated for one hour at room temperature. Washing Buffer was then added followed by removal with aspiration. The addition of Washing Buffer and aspiration was repeated four times, after which the plates were inverted and patted dry.
100 μL of the TMB Substrate (obtained from the ELISA Kit) were added to the wells (color development was visible in 1 minute). The wells were incubated until saturated color development (usually 5-15 minutes). Stop Solution 2 (provided in the ELISA Kit) was added in the same order TMB Substrate was added. The OD450 was then obtained using a plate reader. The EC50 for the compounds was calculated using N′^1,N′^3-dimethyl-N′^1,N′^3-di(phenylcarbonothioyl)malonohydrazide on the same plate as a control (concentration that increases HSP70 to 50% of maximum increase by N′^1,N′^3-dimethyl-N′^1,N′^3-di(phenylcarbonothioyl)malonohydrazide). The EC50 for each of the compounds tested is shown in example 1.
On the technique in general: ELISA stands for enzyme-linked immunosorbent assay.

As usually defined, the EC50 is the midpoint of the concentration-response curve. A lower EC50 goes with higher potency in that assay. In turn, `CN(NC(=O)CS(=O)(=O)NN(C)C(=S)c1cccc(F)c1)C(=S)c1cccc(F)c1` [Compound 1, N′-(3-fluorophenylcarbonothioyl)-2-(2-(3-fluorophenylcarbonothioyl)-2-methylhydrazinyl)-N′-methyl-2-oxoethanesulfonohydrazide] returned an EC50 of 60 nM.
Consider `CCN(NS(=O)(=O)CC(=O)NN(C)C(=S)c1ccccc1)C(=S)c1ccccn1` [Compound 6, N′-ethyl-2-(2-methyl-2-(phenylcarbonothioyl)hydrazinyl)-2-oxo-N′-(pyridine-2-carbonothioyl) ethanesulfonohydrazide], for which the concentration for a half-maximal effect (EC50) stood at 25 nM.
With `CN(NC(=O)CS(=O)(=O)NN(C)C(=S)c1cnccn1)C(=S)c1ccccc1` [Compound 9, N′-methyl-2-(2-methyl-2-(phenylcarbonothioyl)hydrazinyl)-2-oxo-N′-(pyrazine-2-carbonothioyl)-ethanesulfonohydrazide], the midpoint of the response, the EC50, lay at 971 nM.
The result for `CN(NC(=O)CS(=O)(=O)NN(C)C(=S)c1cccnc1)C(=S)c1ccccc1` [Compound 10, N′-methyl-2-(2-methyl-2-(phenylcarbonothioyl)hydrazinyl)-2-oxo-N′-(pyridine-3-carbonothioyl)-ethanesulfonohydrazide] reads 180 nM; that for `CN(NC(=O)CS(=O)(=O)NN(C)C(=S)c1ccccc1)C(=S)c1ccncc1` [Compound 11, N′-methyl-2-(2-methyl-2-(pyridine-4-carbonothioyl)hydrazinyl)-2-oxo-N′-(phenylcarbonothioyl)ethane-sulfonohydrazide], 1030 nM.
The molecule `CN(NC(=O)CS(=O)(=O)NN(C)C(=S)c1ccccc1)C(=S)c1cccnc1` [Compound 13, N′-methyl-2-(2-methyl-2-(pyridine-3-carbonothioyl)hydrazinyl)-2-oxo-N′-(phenylcarbonothioyl)ethane-sulfonohydrazide] gave an EC50 of 202 nM.
As for `CN(NC(=O)CS(=O)(=O)NN(C)C(=S)c1ccoc1)C(=S)c1ccoc1` [Compound 17, N′-(furan-3-carbonothioyl)-2-(2-(furan-3-carbonothioyl)-2-methylhydrazinyl)-N′-methyl-2-oxoethanesulfonohydrazide], it took 127 nM to reach a half-maximal effect (EC50).
`CN(NC(=O)CS(=O)(=O)NN(C)C(=S)c1ccco1)C(=S)c1ccco1` [Compound 18, N′-(furan-2-carbonothioyl)-2-(2-(furan-2-carbonothioyl)-2-methylhydrazinyl)-N′-methyl-2-oxoethanesulfonohydrazide] registered an EC50 of 15 nM.
In the case of `CCN(CC)C(=S)N(C)NC(=O)CS(=O)(=O)NN(C)C(=S)N(CC)CC` [Compound 20, 2-(2-(2-(diethylcarbamothioyl)-2-methylhydrazinyl)-2-oxoethylsulfonyl)-N,N′-diethyl-1-methylhydrazinecarbothioamide], the EC50 is 85 nM.
On to `CN(NC(=O)CS(=O)(=O)NN(C)C(=S)C1CC1)C(=S)C1CC1` [Compound 28, N′-(cyclopropanecarbonothioyl)-2-(2-(cyclopropanecarbonothioyl)-2-methylhydrazinyl)-N′-methyl-2-oxoethanesulfonohydrazide], for which the concentration for a half-maximal effect (EC50) worked out at 98 nM.
In turn, `CCN(NC(=O)CS(=O)(=O)NN(CC)C(=S)C1CC1)C(=S)C1CC1` [Compound 29, N′-(cyclopropanecarbonothioyl)-2-(2-(cyclopropanecarbonothioyl)-2-ethylhydrazinyl)-N′-ethyl-2-oxoethanesulfonohydrazide] came in with a concentration for a half-maximal effect (EC50) of 146 nM.
With `CCN(NC(=O)CS(=O)(=O)NN(CC)C(=S)C1(C)CC1)C(=S)C1(C)CC1` [Compound 30, N′-ethyl-2-(2-ethyl-2-(1-methylcyclopropanecarbonothioyl) hydrazinyl)-N′-(1-methylcyclopropanecarbonothioyl)-2-oxoethanesulfonohydrazide], the 50% effective concentration (EC50) came out at 49 nM.
The result for `CCN(CC)C(=S)N(C)NS(=O)(=O)CC(=O)NN(C)C(=S)C1CC1` [Compound 31, 2-(2-(2-(cyclopropanecarbonothioyl)-2-methylhydrazinyl)-2-oxoethylsulfonyl)-N,N′-diethyl-1-methylhydrazinecarbothioamide] reads 174 nM; that for `CN(NC(=O)CS(=O)(=O)NN(C)C(=S)C1CCC1)C(=S)C1CCC1` [Compound 32, N′-(cyclobutanecarbonothioyl)-2-(2-(cyclobutanecarbonothioyl)-2-methylhydrazinyl)-N′-methyl-2-oxoethanesulfonohydrazide], 958 nM.
As to `CCOC(=S)N(C)NS(=O)(=O)CC(=O)NN(C)C(=S)C1CC1` [Compound 33, O-ethyl 2-(2-(2-(cyclopropanecarbonothioyl)-2-methylhydrazinyl)-2-oxoethylsulfonyl)-1-methylhydrazinecarbothioate], a half-maximal effect (EC50) was put at 143 nM.
The molecule `CCN(NS(=O)(=O)CC(=O)NN(C)C(=S)C1CC1)C(=S)c1cnccn1` [Compound 35, 2-(2-(cyclopropanecarbonothioyl)-2-methylhydrazinyl)-N′-ethyl-2-oxo-N′-(pyrazine-2-carbonothioyl)-ethanesulfonohydrazide] yielded an EC50 of 1020 nM.
Turning to `CN(NS(=O)(=O)CC(=O)NN(C)C(=S)C1CC1)C(=S)c1ccccc1` [Compound 36, 2-(2-(cyclopropanecarbonothioyl)-2-methylhydrazinyl)-N′-methyl-2-oxo-N′-(phenylcarbonothioyl)ethane-sulfonohydrazide], the EC50 was 76 nM.
As to `CN(NC(=O)CS(=O)(=O)NN(C)C(=S)C1CC1)C(=S)c1ccccc1` [Compound 39, N′-(cyclopropanecarbonothioyl)-N′-methyl-2-(2-methyl-2-(phenylcarbonothioyl)hydrazinyl)-2-oxoethanesulfonohydrazide], it took 22 nM to reach a half-maximal effect (EC50).
On to `CN(NS(=O)(=O)CC(=O)NN(C)C(=S)C1CCC1)C(=S)c1ccccc1` [Compound 40, 2-(2-(cyclobutanecarbonothioyl)-2-methylhydrazinyl)-N′-methyl-2-oxo-N′-(phenylcarbonothioyl)ethane-sulfonohydrazide], for which a half-maximal response (EC50) required 1120 nM.
`CN(NC(=O)CS(=O)(=O)NN(C)C(=S)c1ccc2c(c1)OCO2)C(=S)c1ccccc1` [Compound 42, N′-(benzo[d][1,3]dioxole-5-carbonothioyl)-N′-methyl-2-(2-methyl-2-(phenylcarbonothioyl)hydrazinyl)-2-oxoethanesulfonohydrazide] came in with an EC50 of 56 nM.
`CN(NC(=O)CS(=O)(=O)NN(C)C(=S)c1ccc(N2CCOCC2)cc1)C(=S)c1ccccc1` [Compound 43, N′-methyl-2-(2-methyl-2-(phenylcarbonothioyl)hydrazinyl)-N′-(4-morpholinophenylcarbonothioyl)-2-oxoethanesulfonohydrazide] returned a half-maximal effective concentration (EC50) of 74 nM.
As to `CSC(=S)N(C)NS(=O)(=O)CC(=O)NN(C)C(=S)c1ccccc1` [Compound 44, methyl 1-methyl-2-(2-(2-methyl-2-(phenylcarbonothioyl)hydrazinyl)-2-oxoethylsulfonyl) hydrazinecarbodithioate], the response was half-maximal at 228 nM (EC50).
The molecule `CCN(NS(=O)(=O)CC(=O)NN(C)C(=S)c1ccccc1)C(=S)N1CCOCC1` [Compound 50, N′-ethyl-2-(2-methyl-2-(phenylcarbonothioyl)hydrazinyl)-N′-(morpholine-4-carbonothioyl)-2-oxoethanesulfonohydrazide] displayed an EC50 of 114 nM.
